Assays:
Type in all cases: cell-based
Pseudomonas aeruginosa = test: Surface antibacterial test, CFU count on support; conditions: P. aeruginosa; 24 h of contact at ambient temperature; sample solution 10 000 ppm in DMSO dried on inert support
Description: The tests were carried out at the surface: a solution of sample at 10 000 ppm in DMSO for a sample of HPA at 72% purity (i.e. […] of active material) was dried on an inert support. Once the solution had dried, a volume of inoculum of each bacterial strain was placed on the support in contact with the sample for 0 and 24 h at ambient temperature. In order to verify the nontoxicity of the DMSO, a pure solution of DMSO was dried on the support under the same conditions as the samples. A nontreated support (noted support control in FIG. 1) was also inoculated, in order to verify the stability of the strains under the conditions of the test. In order to quantify the contamination at each measurement time, a count was performed by spreading out, at the surface or in the mass, of decimal dilutions of the sample on TSA agar or Columbia agar (for C. acnes). The results were expressed in “colony-forming units” (CFUs) on the support. The Bacterial Strains Targeted are: Gram−: Pseudomonas aeruginosa

Enterococcus hirae = test: Surface antibacterial test, CFU count on support; conditions: E. hirae; 24 h of contact at ambient temperature; sample solution 10 000 ppm in DMSO dried on inert support
Description: (§1) The tests were carried out at the surface: a solution of sample at 10 000 ppm in DMSO for a sample of HPA at 72% purity (i.e. […] of active material) was dried on an inert support. Once the solution had dried, a volume of inoculum of each bacterial strain was placed on the support in contact with the sample for 0 and 24 h at ambient temperature. In order to verify the nontoxicity of the DMSO, a pure solution of DMSO was dried on the support under the same conditions as the samples. A nontreated support (noted support control in FIG. 1) was also inoculated, in order to verify the stability of the strains under the conditions of the test. In order to quantify the contamination at each measurement time, a count was performed by spreading out, at the surface or in the mass, of decimal dilutions of the sample on TSA agar or Columbia agar (for C. acnes). The results were expressed in “colony-forming units” (CFUs) on the support. The Bacterial Strains Targeted are: Gram+: Cutibacterium acnes, Enterococcus hirae, Staphylococcus aureus

Staphylococcus aureus = test: Surface antibacterial test, CFU count on support; conditions: S. aureus; 24 h of contact at ambient temperature; sample solution 10 000 ppm in DMSO dried on inert support
Description: as §1

Cutibacterium acnes = test: Surface antibacterial test, CFU count on support (Columbia agar); conditions: C. acnes; 24 h of contact at ambient temperature; sample solution 10 000 ppm in DMSO dried on inert support
Description: as §1

9(10)-hydroperoxy-10(9)-hydroxystearic acid [hydroperoxy alcohol of oleic acid]
logarithmic reduction in the population relative to t=0 (Pseudomonas aeruginosa): approximately 4 log 10 | logarithmic reduction of the population relative to t=0 (Enterococcus hirae): approximately 5 log 10 | logarithmic reduction of the population relative to t=0 (Staphylococcus aureus): approximately 5 log 10 | logarithmic reduction of the population relative to t=0 (Cutibacterium acnes): approximately 6 log 10
